According to patent US20230270148A1, “BITTER BLOCKERS AND RELATED METHODS OF USE” (Conagen Inc., priority 2020, published 2023):

Key:
0.25% caffeine solution = experiment: Sensory evaluation: bitterness reduction of a caffeine solution; assay type: in vivo; conditions: for Comments: taste and mouth feel comments, dosage per sample; for Estimated % bitterness reduction: one trained sensory evaluator, vs control, dosage (ppm) per sample (20 to 50-100 ppm)
Method: (§1) The bitter blocker candidates listed in Table 1 were prepared into a 1% sample solution with propylene glycol (i.e., 1 g of bitter blocker per 100 ml of propylene glycol) and heated to ensure complete solubilization. […] A trained sensory evaluator was asked to estimate the perceived bitterness reduction against the control, as well as to provide comments on how the addition of the individual sample solution modulated the taste and mouth feel profile of the resulting caffeine solution.

[1] = test system: melted dark chocolate pieces with 100% dark cacao; experiment: Sensory evaluation: bitterness reduction of dark chocolate pieces; assay type: in vivo; conditions: dosage 50 or 100 ppm per sample
Method: (§2) The bitterness blocker candidates listed in Table 1 were prepared into a 1% sample solution with propylene glycol and heated to ensure complete solubilization. […] Individually, the respective sample solution was added to melted dark chocolate pieces with 100% dark cacao. A trained sensory evaluator was asked to estimate the perceived bitterness reduction against the control, as well as to provide comments on how the addition of the individual sample solution modulated the taste and mouth feel profile of the resulting melted dark chocolate pieces.

[2] = test system: peach-flavored energy drink (caffeine, B vitamins); experiment: Sensory evaluation: bitterness reduction of a peach-flavored energy drink; assay type: in vivo; conditions: for Comments: dosage per sample; for Estimated % bitterness reduction: caffeine about 710 mg/l, dosage (ppm) per sample (20 to 50-100 ppm)
Method: as §1, with “The bitterness” for “The bitter”, “glycol” for “glycol (i.e., 1 g of bitter blocker per 100 ml of propylene glycol)”, “resulting peach-flavored energy drink.” for “resulting caffeine solution.”

THC nanoemulsion = experiment: Sensory evaluation: bitterness reduction of THC; assay type: in vivo; conditions: dosage 50 or 100 ppm per sample; for Comments: THC nanoemulsion; for Estimated % bitterness reduction: THC nanoemulsion (10 mg THC per serving)
Method: (§3) The bitterness blocker candidates listed in Table 1 were prepared into a 1% sample solution with propylene glycol and heated to ensure complete solubilization. […] THC was first emulsified into a water-soluble nanoemulsion (10 mg THC per serving), to which was added the respective sample solution. A trained sensory evaluator was asked to estimate the perceived bitterness reduction against the control, as well as to provide comments on how the addition of the individual sample solution modulated the taste and mouth feel profile of the resulting nanoemulsion.

[3] = test system: cough syrup DELSYM (dextromethorphan HBr); experiment: Sensory evaluation: bitterness reduction of cough syrup DELSYM; assay type: in vivo; conditions: dosage 50 or 100 ppm per sample; for Estimated % bitterness reduction: 6000 mg/l of dextromethorphan
Method: as §2, with “a cough syrup sold under the trade name DELSYM®. The bitter-tasting agent contained in the cough syrup were dextromethorphan HBr USP 30 mg (as measured for each 5 ml teaspoon, i.e., 6000 mg/l of dextromethorphan).” for “melted dark chocolate pieces with 100% dark cacao.”, “cough syrup.” for “melted dark chocolate pieces.”

[4] = test system: full spectrum CBD hemp oil nanoemulsion; experiment: Sensory evaluation: bitterness reduction of full spectrum CBD hemp oil; assay type: in vivo; conditions: dosage 50 or 100 ppm per sample
Method: as §3, with “A full spectrum CBD hemp oil” for “THC”, “was” for “was first”, “first,” for “(10 mg THC per serving),”, “solution. […]” for “solution.”, “resulting oil” for “resulting”

CBD isolate nanoemulsion = experiment: Sensory evaluation: bitterness reduction of CBD isolate; assay type: in vivo; conditions: dosage 50 or 100 ppm per sample
Method: as §3, with “A CBD isolate” for “THC”, “was” for “was first”, “first,” for “(10 mg THC per serving),”, “solution. […]” for “solution.”

[5] = test system: cough syrup ROBITUSSIN DM (dextromethorphan HBr and guaifenesin); experiment: Sensory evaluation: bitterness reduction of cough syrup ROBITUSSIN DM; assay type: in vivo; conditions: dosage 50 or 100 ppm per sample; for Estimated % bitterness reduction: 21000 mg/l of bitter tastants
Method: as §2, with “a cough syrup sold under the trade name ROBITUSSIN® DM. The bitter-tasting agents contained in the cough syrup were dextromethorphan HBr USP 20 mg and guaifenesin USP 400 mg (as measured for each 20 ml serving, or 21000 mg/l of bitter tastants in total).” for “melted dark chocolate pieces with 100% dark cacao.”, “cough syrup.” for “melted dark chocolate pieces.”

dark roast coffee = experiment: Sensory evaluation: bitterness reduction of dark roast coffee; assay type: in vivo; conditions: dosage 50 or 100 ppm per sample; for Estimated % bitterness reduction: caffeine about 740 mg/l
Method: The bitterness blocker candidates listed in Table 1 were prepared into a 1% sample solution with propylene glycol and heated to ensure complete solubilization. […] A trained sensory evaluator was asked to estimate the perceived bitterness reduction against the control, as well as to provide comments on how the addition of the individual sample solution modulated the taste and mouth feel profile of the resulting dark roast coffee.

[6] = test system: bitter-responsive human taste bud tissue-derived cells (hTBEC); experiment: ATP secretion detection assay (luminescence); assay type: cell-based
Method: The bitter blocker candidates were further characterized using bitter-responsive human taste bud tissue-derived cells (hTBEC) platforms and bioassays. Bitter-responsive hTBECs were treated with hitter blocker candidates and various bitter agonists to assess the efficacy of each bitter blocker candidate in reducing the bitterness of each of the various bitter agonists.
One industry standard bitter agonist was used as a control (L-Praziquantel), and five bitter blocker controls were used (Senomyx BB68, STX-001, sodium gluconate, eridictyol, and homoeridictyol).
BB09, BB11, and BB13 were first tested at various concentrations in combination with 100 μM Dextromethorphan-HBr.
Next, bitter blocker concentration ranges were narrowed (100 μM-1,000 μM) and compared to a fixed concentration of stimulus. […] BB13 was evaluated further by real time ATP secretion detection in pooled hTBEC 66 cells treated with 300 μM Theobromine.
Each culture was treated with BB09, BB11, BB13, STX001, or Senomyx BB68, as well as either Dextromethorphan-HBr at 1000 μM (FIGS. 18A-18C), Theobromine at 1,000 μM (FIGS. 19A-19C), Rebaudioside A at 1 mM (FIGS. 20A-20C), or Caffeine at 3 mM (FIGS. 21A-21C).

caffeine in water = experiment: Two-alternative forced choice (2AFC) difference test; assay type: in vivo
Method: The bitter blocker candidates BB09, BB11, and BB13 were subject to a two-alternative forced choice (2AFC) difference test wherein panelists were presented Control Caffeine solutions and Test solutions containing caffeine and one of three bitterness blocker candidates (BB09, BB 11, or BB13). Panelists were asked to evaluate the two samples and answer the question, “which one is more hitter?”
BB09 and BB11 were tested first. Three ounces of control (caffeine in water), BB09 in caffeine water, and BB11 in caffeine water were presented at room temperature in separate plastic souffle cups labeled with 3-digit codes. Ten sensory trained panelists evaluated each sample in three repetitions with a 10 minute break between repetitions. Panelists then completed the 2AFC. Data was collected on EveQuestion and analyzed on XLSTAT. Testing was conducted at Sensations Research according to FEMA guidelines.
BB13 was tested separately. Two ounces of control (caffeine in water), BB13 in caffeine water were presented at room temperature in separate plastic souffle cups labeled with 3-digit codes. Fifteen participants evaluated each sample in two repetitions with a 10 minute break between repetitions for a total of thirty evaluations as per the FEMA guidelines. Panelists then completed the 2AFC to identify the more bitter sample. Data was collected and analyzed on Compusense.

SMILES | Comments (0.25% caffeine solution) | Comments [1] | Comments [2] | Comments (THC nanoemulsion) | Comments [3] | Comments [4] | Comments (CBD isolate nanoemulsion) | Comments (dark roast coffee) | further results
COc1ccc(-c2cc(=O)c3c(O)cc(O)cc3o2)cc1 [BB01, Acacetin] | Some bitterness blocking on sides |  |  |  |  |  |  |  | 
COc1cc([C@@H]2CC(=O)c3c(O)cc(O)cc3O2)ccc1O [BB02, Homoeriodictyol] |  | Some blocking on sides and tip | Some blocking on sides and tip | Some blocking on sides and tip | Some blocking on sides and tip | Some blocking on sides and tip | Some blocking on sides and tip | Some blocking on sides and tip | Comments [5]: Some blocking on sides and tip
O=c1c(O)c(-c2ccc(O)cc2)oc2cc(O)cc(O)c12 [BB03, Kaempferol] | Some bitterness blocking on sides |  |  |  |  |  |  |  | 
O=C1c2c(O)cc(O)cc2O[C@H](c2ccc(O)c(O)c2)[C@H]1O [BB04, Dihydroquercetin] | Some bitterness blocking on sides |  |  |  |  |  |  |  | 
O=C1c2c(O)cc(O)cc2O[C@H](c2ccc(O)cc2)[C@H]1O [BB06, Dihydrokaempferol] | Some bitterness blocking on sides |  |  |  |  |  |  |  | 
O=C1C[C@@H](c2ccc(O)c(O)c2)Oc2cc(O)cc(O)c21 [BB07, Eriodictyol] | Some bitterness blocking on all parts | Some bitterness blocking on all | Some bitterness blocking on all | Some bitterness blocking on all | Some bitterness blocking on all | Some bitterness blocking on all | Some bitterness blocking on all | Some bitterness blocking on all | Estimated % bitterness reduction [1]: 50%; Estimated % bitterness reduction [2]: 50%; Estimated % bitterness reduction (THC nanoemulsion): 30%; Estimated % bitterness reduction [3]: 30%; Estimated % bitterness reduction (0.25% caffeine solution): 50%; Estimated % bitterness reduction [4]: 30%; Estimated % bitterness reduction (CBD isolate nanoemulsion): 30%; Estimated % bitterness reduction [5]: 30%; Comments [5]: Some bitterness blocking on all; Estimated % bitterness reduction (dark roast coffee): 50%
COc1cc([C@@H]2CC(=O)c3c(O)cc(O[C@@H]4O[C@H](CO)[C@@H](O)[C@H](O)[C@H]4O)cc3O2)ccc1O [BB09, Homoeriodictyol 7-O-glucoside] | Good upfront bitterness reduction | Good bitterness reduction but | Good upfront bitterness | Nice upfront bitterness reduction | Covered up a good percentage of | Nice upfront bitterness reduction | Nice upfront bitterness reduction | Nice upfront bitterness reduction | real time Rebaudioside A-induced ATP secretion ([6]; 1 mM Rebaudioside A, blocker 1,000 μM, pooled hTBEC 56 cultures (FIG. 17)): attenuated; inhibition of the bitter agonists (ATP secretion) ([6]; hTBEC 66, hTBEC 56, hTBEC Donor H, Dextromethorphan-HBr at 1000 μM, Theobromine 1,000 μM, Rebaudioside A 1 mM or Caffeine 3 mM (FIGS. 18-21)): trends of inhibition in most cases; Significant? (caffeine in water; 2AFC, 90% confidence level, which sample is more bitter): Yes,; # Selected Variant (which is more bitter?) (caffeine in water; of 30 responses (10 panelists, 3 evaluations), control caffeine in water vs variant in caffeine water): 10
O=C1C[C@@H](c2ccc(O[C@@H]3O[C@H](CO)[C@@H](O)[C@H](O)[C@H]3O)c(O)c2)Oc2cc(O)cc(O)c21 [BB12, Eriodictyol 4′-O-glucoside] | Some bitterness blocking on front |  |  |  |  |  |  |  | Estimated % bitterness reduction [1]: 30%; Estimated % bitterness reduction [2]: 30%; Estimated % bitterness reduction (THC nanoemulsion): 30%; Estimated % bitterness reduction [3]: 30%; Estimated % bitterness reduction (0.25% caffeine solution): 30%; Estimated % bitterness reduction [4]: 30%; Estimated % bitterness reduction (CBD isolate nanoemulsion): 30%; Estimated % bitterness reduction [5]: 30%; Estimated % bitterness reduction (dark roast coffee): 30%
